The EC50 is the concentration giving half of the maximal effect. A higher EC50 goes with a need for much substance.

For the assay, the system named is Hepatitis C replicon. The assay is described as follows: HCV replicon assay (NPT ELISA readout) in Huh-7 replicon-containing cells. It counts as cell-based, Hepatitis C virus. Particulars: Hepatitis C virus, 72 h; HCV replicon in Huh-7 cells, three days incubation. Here is the method: Compounds claimed herein are tested for the ability to inhibit viral replication of the Hepatitis C replicon in cultured cells in which the HCV replicon construct has been incorporated. The HCV replicon system was described by Bartenschlager, et. al (Science, 285, pp. 110-113 (1999)). The replicon system is predictive of in vivo anti-HCV activity; compounds that are active in humans uniformly evidence activity in the replicon assay.
In this assay HCV replicon containing cells are treated with different concentrations of the test compound to ascertain the ability of the test compound to suppress replication of the HCV replicon. As a positive control, HCV replicon-containing cells are treated with different concentrations of interferon alpha, a known inhibitor of HCV replication. The replicon assay system includes Neomycin Phosphotransferase (NPT) as a component of the replicon itself in order to detect the transcription of replicon gene products in the host cell. Cells in which the HCV replicon is actively replicating have high levels of NPT; the level of NPT is proportional to HCV replication. […] The NPT level of each sample is measured using a captured ELISA.
A protocol for testing compounds for the ability to inhibit viral replication of the Hepatitis C replicon cultured cells in which the replicon construct has been incorporated, follows.
The HCV replicon contains, 5′-3′, the HCV-IRES, the neomycin phosphotransferase (neo) gene, the IRES of encephalomyocarditis virus, which directs translation of HCV sequences NS3 to NS5B, and the 3′-NTR. The sequence of the HCV replicon has been deposited in GenBank (Accession no. AJ242652).
The replicon is transfected into Huh-7 cells using standard methods such as electroporation.
The equipment and materials include, but are not limited to, Huh-7 HCV replicon-containing cells, maintenance media (DMEM (Dulbecco's modified Eagle media) supplemented with 10% FBS, L-glutamine, non-essential amino acids, penicillin (100 units/ml), streptomycin (100 micrograms/ml), and 500 micrograms/ml of Geneticin (G418), screening media (DMEM supplemented with 10% FBS, L-glutamine, non-essential amino acids, penicillin (100 units/ml) and streptomycin (100 micrograms/ml)), 96 well tissue culture plates (flat bottom), 96 well plates (U bottom for drug dilution), Interferon alpha for positive control, fixation reagent (such as methanol:acetone), primary antibody (rabbit anti-NPTII), secondary antibody: Eu-N1 l, and enhancement solution.
The cells are then seeded onto 96-well plates at a density of 6000-7500 cells/100 microliters/well (6-7.5×10^5 cells/10 ml/plate). The plates are then incubated at 37° C. in a 5% CO2 incubator.
HCV replicon-containing cells are rinsed with once PBS once; 2 mls of trypsin are then added. Cells are incubated at 37° C. in a 5% CO2 incubator for 3-5 minutes. 10 mls of complete medium is added to stop the reaction. Cells are blown gently, put into a 15 ml tube, and spun at 1200 rpm for four minutes. The trypsin/medium solution is removed and 5 mls of medium (500 ml DMEM (high glucose)) from BRL catalog #12430-054; 50 mls 10% FBS, 5% Geneticin G418 (50 mg/ml, BRL catalog #10131-035), 5 ml MEM non-essential amino acids (100×BRL #11140-050) and 5 ml pen-strep (BRL #15140-148) is added. The cells and media are mixed carefully
Cells are plated with screening medium (500 ml DMEM (BRL #21063-029), 50 ml FBS (BRL #10082-147) and 5 ml MEM non-essential amino acid (BRL #11140-050) at 6000-7500 fcells/100 μl/well of 96 well plate (6-7.5×10^5 cells/10 ml/plate). Plates are placed into 37° C. 5% CO2 incubator overnight.
The following morning, drugs (test compounds or interferon alpha) are diluted in 96 well U bottom plates with media or DMSO/media, depending on the final concentration chosen for screening. Generally for 6 concentrations of each test compounds ranging from 10 micromolar to 0.03 micromolar are applied. […]
(Replicon systems follow genome replication, usually without infectious particles.)
Compound `O=C1N[C@]2(C(=O)NS(=O)(=O)C3CC3)C[C@H]2/C=C\CCCCC[C@H](CC(=O)N2CCCC(F)(F)C2)C(=O)N2C[C@H](Oc3cc(-c4ccccn4)nc4c5c(ccc34)CCC5)C[C@@H]12` [Compound 127, (2R,6R,13aS,16aS,Z)-N-(cyclopropylsulfonyl)-6-(2-(3,3-difluoropiperidin-1-yl)-2-oxoethyl)-5,16-dioxo-2-(2-(pyridin-2-yl)-8,9-dihydro-7H-cyclopenta[h]quinolin-4-yloxy)-1,2,3,5,6,7,8,9,10,11, 13a,14,14a,15,16,16a-hexadecahydrocyclopropa [e]pyrrolo[1,2-a][1,4] diazacyclopentadecine-14a-carboxamide] had an EC50 greater than 10 µM.
Consider `COc1ccc2c(O[C@@H]3C[C@H]4C(=O)N[C@H](C(=O)NS(=O)(=O)C5CC5)[C@@H](C)CCCCCCC[C@H](CC(=O)N5CCCCC5)C(=O)N4C3)cc(-c3ccccc3)nc2c1` [Compound 53, (3S,4S,12R,16R,17aS)-N-(cyclopropylsulfonyl)-16-(7-methoxy-2-phenylquinolin-4-yloxy)-4-methyl-1,13-dioxo-12-(2-oxo-2-(piperidin-1-yl)ethyl)hexadecahydro-1H-pyrrolo[1,2-a][1,4] diazacyclopentadecine-3-carboxamide], for which the EC50 lay in the range of 1 to 10 µM.
Consider `COc1ccc2c(O[C@@H]3C[C@H]4C(=O)N[C@]5(C(=O)NS(=O)(=O)C6CC6)C[C@H]5/C=C\CCCCC[C@H](CC(=O)N5CCCCC5)C(=O)N4C3)cc(-c3ccccc3)cc2c1` [Compound 120, (2R,6R,14aR,16aS,Z)-N-(cyclopropylsulfonyl)-2-(6-methoxy-3-phenylnaphthalen-1-yloxy)-5,16-dioxo-6-(2-oxo-2-(piperidin-1-yl)ethyl)-1,2,3,5,6,7,8,9,10,11, 13a,14,14a,15,16,16a-hexadecahydrocyclopropa [e]pyrrolo[1,2-a][1,4] diazacyclopentadecine-14a-carboxamide], for which the EC50 is less than 1 µM.
`O=C1NC2(C(=O)NS(=O)(=O)C3CC3)CC2/C=C\CCCCC[C@H](CC(=O)N2CCCCC2)C(=O)N2C[C@H](OC(=O)N3Cc4cccc(F)c4C3)C[C@@H]12` (stereo partly drawn) [Compound 50, (2R,6R,16aS,Z)-14a-(cyclopropylsulfonyl-carbamoyl)-5,16-dioxo-6-(2-oxo-2-(piperidin-1-yl)ethyl)-1,2,3,5,6,7,8,9,10,11, 13a,14,14a,15,16,16a-hexadecahydrocyclopropa [e]pyrrolo[1,2-a][1,4] diazacyclopentadecin-2-yl 4-fluoroisoindoline-2-carboxylate] had an EC50 of less than 1 µM.
For the compound `COc1ccc2c(O[C@@H]3C[C@H]4C(=O)N[C@]5(C(=O)NS(=O)(=O)C6CC6)C[C@H]5/C=C\CCCCC[C@H](CC(=O)N5CCN(C(=O)N6CCCC6)CC5)C(=O)N4C3)cc(-c3ccccc3)nc2c1` [Compound 85, (2R,6R,14aR,16aS,Z)-N-(cyclopropylsulfonyl)-2-(7-methoxy-2-phenylquinolin-4-yloxy)-5,16-dioxo-6-(2-oxo-2-(4-(pyrrolidine-1-carbonyl)piperazin-1-yl)ethyl)-1,2,3,5,6,7,8,9,10,11, 13a,14,14a,15,16,16a-hexadecahydrocyclopropa [e]pyrrolo[1,2-a][1,4] diazacyclopentadecine-14a-carboxamide], the concentration for a half-maximal effect (EC50) is less than 1 µM.
The same measure for `CCS(=O)(=O)N1CCN(C(=O)C[C@H]2CCCCC/C=C\[C@@H]3C[C@@]3(C(=O)NS(=O)(=O)C3CC3)NC(=O)[C@@H]3C[C@@H](Oc4cc(-c5ccccc5)nc5cc(OC)ccc45)CN3C2=O)CC1` [Compound 86, (2R,6R,14aR,16aS,Z)-N-(cyclopropylsulfonyl)-6-(2-(4-(ethylsulfonyl)piperazin-1-yl)-2-oxoethyl)-2-(7-methoxy-2-phenylquinolin-4-yloxy)-5,16-dioxo-1,2,3,5,6,7,8,9,10,11, 13a,14,14a,15,16,16a-hexadecahydrocyclopropa [e]pyrrolo[1,2-a][1,4] diazacyclopentadecine-14a-carboxamide]: less than 1 µM; for `COc1ccc2c(O[C@@H]3C[C@H]4C(=O)N[C@]5(C(=O)NS(=O)(=O)C6CC6)C[C@H]5/C=C\CCCCC[C@H](CC(=O)N5CCC(F)(F)C5)C(=O)N4C3)cc(-c3ccccn3)nc2c1Cl` [Compound 94, (2R,6R,14aR,16aS,Z)-2-(8-chloro-7-methoxy-2-(pyridin-2-yl)quinolin-4-yloxy)-N-(cyclopropylsulfonyl)-6-(2-(3,3-difluoropyrrolidin-1-yl)-2-oxoethyl)-5,16-dioxo-1,2,3,5,6,7,8,9,10,11, 13a,14,14a,15,16,16a-hexadecahydrocyclopropa [e]pyrrolo[1,2-a][1,4] diazacyclopentadecine-14a-carboxamide]: less than 1 µM.
On to `COc1ccc2c(O[C@@H]3C[C@H]4C(=O)N[C@]5(C(=O)NS(=O)(=O)C6CC6)C[C@H]5/C=C\CCCCC[C@H](CC(=O)N5CCCC(F)(F)C5)C(=O)N4C3)nc(-c3ccccn3)cc2c1Cl` [Compound 130, (2R,6R,14aR,16aS,Z)-2-(5-chloro-6-methoxy-3-(pyridin-2-yl)isoquinolin-1-yloxy)-N-(cyclopropylsulfonyl)-6-(2-(3,3-difluoropiperidin-1-yl)-2-oxoethyl)-5,16-dioxo-1,2,3,5,6,7,8,9,10,11, 13a,14,14a,15,16,16a-hexadecahydrocyclopropa [e]pyrrolo[1,2-a][1,4] diazacyclopentadecine-14a-carboxamide], for which the EC50 is less than 1 µM.
Consider `CO/N=C1\CN(C(=O)C[C@H]2CCCCC/C=C\[C@@H]3C[C@@]3(C(=O)NS(=O)(=O)C3CC3)NC(=O)[C@@H]3C[C@@H](Oc4cc(-c5ccccc5)nc5cc(OC)ccc45)CN3C2=O)CC1(C)CN` (stereo partly drawn) [Compound 110, (2R,6R,14aR,16aS,Z)-6-(2-((Z)-3-(aminomethyl)-4-(methoxyimino)-3-methylpyrrolidin-1-yl)-2-oxoethyl)-N-(cyclopropylsulfonyl)-2-(7-methoxy-2-phenylquinolin-4-yloxy)-5,16-dioxo-1,2,3,5,6,7,8,9,10,11, 13a,14,14a,15,16,16a-hexadecahydrocyclopropa [e]pyrrolo[1,2-a][1,4] diazacyclopentadecine-14a-carboxamide], for which the EC50 was less than 1 µM.
Under `COc1ccc2c(O[C@@H]3C[C@H]4C(=O)N[C@]5(C(=O)NS(=O)(=O)C6CC6)C[C@H]5/C=C\CCCCC[C@H](CC(=O)N5C(C)CCCC5C)C(=O)N4C3)cc(-c3ccccc3)nc2c1` (stereo partly drawn) [Compound 69, (2R,6R,13aS, 14aR,16aS,Z)-N-(cyclopropylsulfonyl)-6-(2-(2,6-dimethylpiperidin-1-yl)-2-oxoethyl)-2-(7-methoxy-2-phenylquinolin-4-yloxy)-5,16-dioxo-1,2,3,5,6,7,8,9,10,11, 13a,14,14a,15,16,16a-hexadecahydrocyclopropa [e]pyrrolo[1,2-a][1,4] diazacyclopentadecine-14a-carboxamide] stands less than 1 µM.
`COc1ccc2c(O[C@@H]3C[C@H]4C(=O)N[C@]5(C(=O)NS(=O)(=O)C6CC6)C[C@H]5/C=C\CCCCC[C@H](CC(=O)N5CCC(C(F)(F)F)CC5)C(=O)N4C3)cc(-c3ccccn3)nc2c1Cl` [Compound 92, (2R,6R,14aR,16aS,Z)-2-(8-chloro-7-methoxy-2-(pyridin-2-yl)quinolin-4-yloxy)-N-(cyclopropylsulfonyl)-5,16-dioxo-6-(2-oxo-2-(4-(trifluoromethyl)piperidin-1-yl)ethyl)-1,2,3,5,6,7,8,9,10,11, 13a,14,14a,15,16,16a-hexadecahydrocyclopropa [e]pyrrolo[1,2-a][1,4] diazacyclopentadecine-14a-carboxamide] registered an EC50 of less than 1 µM.

(Values after patent US8697641B2, “4-amino-4-oxobutanoyl peptide cyclic analogues, inhibitors of viral replication” (Achillion Pharmaceuticals, Inc., priority 2008, dated 2014).)
